Assay results as given in PubChem BioAssay AID485351 (Sanford-Burnham Center for Chemical Genomics, 2010).
Values joined by “and” are separate entries in the source; they are usually repeats but may differ in a detail not shown here. Equal values may be shown once. Active and inactive are the calls of the source. No rule for the calls is given here.

Molecular target: Ubiquitin-conjugating enzyme E2 N (Homo sapiens) (UniProt P61088)
Assay: Ubc13/Uev1a ubiquitination inhibitors, SAR follow-up, biochemical, TR-FRET, set 2 (AID 485351)
Details: in vitro Ubc13-Uev1a ubiquitination

Chain of Ubiquitin-conjugating enzyme E2 N (Homo sapiens) (P61088 whole entry, looked up): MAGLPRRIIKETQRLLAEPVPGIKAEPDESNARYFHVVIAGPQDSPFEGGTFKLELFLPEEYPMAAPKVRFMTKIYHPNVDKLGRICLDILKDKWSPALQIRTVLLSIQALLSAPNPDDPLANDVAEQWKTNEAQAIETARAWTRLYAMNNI

Row | SMILES | IC50
1 | COc1ccc(CN2C(=O)C(NC(C)=O)c3ccccc32)cc1 (centres undefined) | > 100 µM (inactive)
2 | COC(=O)C1=C(C(=O)OC)C2([C@@H](Cc3ccc(C)cc3)Nc3ccccc3)C=CC1O2 (some centres undefined) | > 100 µM (inactive)
3 | CCC[C@H](Nc1ccccc1)C12C=CC(O1)C(C(=O)OC)=C2C(=O)OC (some centres undefined) | > 100 µM (inactive)
4 | CCCCn1c(NS(=O)(=O)c2ccccc2)c(S(=O)(=O)c2ccc(C)cc2)c2nc3ccccc3nc21 | 0.741 µM
5 | C=CC[C@H](Nc1ccc(C)cc1)C12C=CC(O1)C(C(=O)OC)=C2C(=O)OC (some centres undefined) | > 100 µM (inactive)
6 | CCCCn1c(NC(=O)c2ccccc2Cl)c(S(=O)(=O)c2ccccc2)c2nc3ccccc3nc21 | 1.68 µM
7 | COC(=O)C1=C(C(=O)OC)C2([C@@H](C)Nc3ccc(OC)cc3)C=CC1O2 (some centres undefined) | > 100 µM (inactive)
8 | CCCCNC(=O)c1c(NC(=O)c2ccccc2)n(Cc2ccccc2)c2nc3ccccc3nc12 | 18.8 µM
9 | COC(=O)C1=C(C(=O)OC)C2([C@H](Cc3ccccc3)Nc3ccc(OC)cc3)C=CC1O2 (some centres undefined) | > 100 µM (inactive)
10 | COC(=O)C1=C(C(=O)OC)C2([C@@H](C)Nc3ccc(Cl)cc3)C=CC1O2 (some centres undefined) | > 100 µM (inactive)
11 | CCCCn1c(NC(=O)c2ccc(F)cc2)c(C#N)c2nc3ccccc3nc21 | 1.16 µM
12 | N#Cc1c(NC(=O)c2ccccc2Cl)n(C2CCCCC2)c2nc3ccccc3nc12 | 2.84 µM
13 | CCC[C@@H](Nc1ccccc1)C12C=CC(O1)C(C(=O)OC)=C2C(=O)OC (some centres undefined) | > 100 µM (inactive)
14 | CCCCn1c(NC(=O)c2ccc(F)cc2)c(S(=O)(=O)c2ccc(C)cc2)c2nc3ccccc3nc21 | 1.32 µM
15 | N#Cc1c(NC(=O)c2ccccc2Cl)n(Cc2ccccc2)c2nc3ccccc3nc12 | 2.78 µM
16 | C=C[C@H](Nc1ccccc1)C12C=CC(O1)C(C(=O)OC)=C2C(=O)OC (some centres undefined) | 51.5 µM
17 | C=CCn1c(NC(=O)c2ccccc2Cl)c(C#N)c2nc3ccccc3nc21 | 1.11 µM
18 | CCCC1=NN(c2ccccc2)C(=O)/C1=C\c1ccc(O)cc1 | > 100 µM (inactive)
19 | COC(=O)C1=C(C(=O)OC)C2([C@H](Cc3ccc(C)cc3)Nc3ccccc3)C=CC1O2 (some centres undefined) | > 100 µM (inactive)
20 | CC(=O)NC1C(=O)N(CCN2CCOCC2)c2ccc(C)cc21 (centres undefined) | > 100 µM (inactive)
21 | CCCC1=NN(c2ccc(C(=O)O)cc2)C(=O)/C1=C/c1ccc(OCc2ccccc2)c(OC)c1 | > 100 µM (inactive)
22 | C=CC[C@H](N(Cc1ccccc1)/C(=C\C(=O)OC)C(=O)OC)C12C=CC(O1)C(C(=O)OC)=C2C(=O)OC (some centres undefined) | > 100 µM (inactive)
23 | COc1ccc2c(c1)C(=O)C(=O)N2CCN1CCOCC1 | > 100 µM (inactive)
24 | C=CC[C@H](Nc1ccc(OC)cc1)C12C=CC(O1)C(C(=O)OC)=C2C(=O)OC (some centres undefined) | > 100 µM (inactive)
25 | CCCCn1c(NC(=O)CC)c(S(=O)(=O)c2ccc(C)cc2)c2nc3ccccc3nc21 | 0.742 µM
26 | COC(=O)C1=C(C(=O)OC)C2([C@H](C)Nc3ccccc3)C=CC1O2 (some centres undefined) | 80.2 µM
27 | CCCCn1c(NC(C)=O)c(C#N)c2nc3ccccc3nc21 | 0.669 µM

Row | SMILES | IC50
28 | COC(=O)C1=C(C(=O)OC)C2([C@@H](Cc3ccccc3)Nc3ccc(C)cc3)C=CC1O2 (some centres undefined) | > 100 µM (inactive)
29 | CCCN1C(=O)C(NC(C)=O)c2cc(OC)ccc21 (centres undefined) | > 100 µM (inactive)
30 | CCCCCn1c(NC(=O)c2ccco2)c(C(=O)OCC)c2nc3ccccc3nc21 | 0.501 µM
31 | CCCC1=NN(c2ccccc2)C(=O)/C1=C/c1ccc(OCc2ccc(C(=O)OC)cc2)cc1 | > 100 µM (inactive)
32 | CCC(=O)Nc1c(S(=O)(=O)c2ccccc2)c2nc3ccccc3nc2n1Cc1ccccc1 | 0.755 µM
33 | c1ccc(CC(Nc2ccccc2)c2ccco2)cc1 (centres undefined) | > 100 µM (inactive)
34 | COc1cc(/C=C2\C(=O)N(c3ccccc3)N=C2C)ccc1OC(=O)c1cccs1 | > 100 µM (inactive)
35 | CCCCn1c(NC(=O)c2ccc(OC)cc2)c(S(=O)(=O)c2ccc(C)cc2)c2nc3ccccc3nc21 | 0.752 µM
36 | C=CCC(Nc1ccccc1)C12C=CC(O1)C(C(=O)OC)=C2C(=O)OC (centres undefined) | > 100 µM (inactive)
37 | COc1cc(/C=C2\C(=O)N(c3ccccc3)N=C2C)ccc1OCc1ccccc1 | > 100 µM (inactive)
38 | COC(=O)C1=C(C(=O)O)C2C=CC1([C@@H](Cc1ccccc1)Nc1ccccc1)O2 (some centres undefined) | > 100 µM (inactive)
39 | COC(=O)C1=C(C(=O)OC)C2([C@H](C)Nc3ccc(Cl)cc3)C=CC1O2 (some centres undefined) | 53 µM
40 | COc1ccc2c(c1)C(NC(C)=O)C(=O)N2CC1COc2ccccc2O1 (centres undefined) | > 100 µM (inactive)
41 | COC(=O)C1=C(C(=O)OC)C2([C@@H](C)Nc3ccc(C)cc3)C=CC1O2 (some centres undefined) | > 100 µM (inactive)
42 | CCCCn1c(NC(=O)C2CCCCC2)c(C#N)c2nc3ccccc3nc21 | 0.499 µM
43 | COC(=O)C=C(NC(CO)(CO)CO)C(=O)OC | 87.2 µM
44 | CCCCn1c(NC(=O)c2ccco2)c(C#N)c2nc3ccccc3nc21 | 0.777 µM
45 | C=CC[C@@H](Nc1ccccc1)C12C=CC(O1)C(C(=O)OC)=C2C(=O)OC (some centres undefined) | > 100 µM (inactive)
46 | COC(=O)C1=C(C(=O)OC)C2([C@@H](Cc3ccccc3)Nc3ccc(OC)cc3)C=CC1O2 (some centres undefined) | > 100 µM (inactive)
47 | CCCCn1c(NC(=O)c2cccc(Cl)c2)c(C#N)c2nc3ccccc3nc21 | 1.34 µM
48 | COC(=O)C1=C(C(=O)OC)C2([C@@H](Cc3ccccc3)Nc3ccccc3)C=CC1O2 (some centres undefined) | > 100 µM (inactive)
49 | COC(=O)C1=C(C(=O)OC)C2(C(Cc3ccc(F)cc3)Nc3ccccc3)C=CC1O2 (centres undefined) | > 100 µM (inactive)
50 | COCCNC(=O)c1c(NC(=O)c2ccccc2)n(Cc2ccccc2)c2nc3ccccc3nc12 | 0.656 µM
51 | COC(=O)[C@@H]1C2CCC([C@@H](Cc3ccccc3)Nc3ccccc3)(O2)[C@@H]1C(=O)OC (some centres undefined) | > 100 µM (inactive)
52 | C=CC[C@@H](Nc1ccc(OC)cc1)C12C=CC(O1)C(C(=O)OC)=C2C(=O)OC (some centres undefined) | 78.9 µM
53 | Cc1cc(C)c2c(c1)C(=O)C(=O)N2CCN1CCOCC1 | > 100 µM (inactive)
54 | COC(=O)C1=C(C(=O)OC)C2([C@H](Cc3ccccc3)Nc3ccc(Cl)cc3)C=CC1O2 (some centres undefined) | > 100 µM (inactive)

Row | SMILES | IC50
55 | COC(=O)C1=C(C(=O)OC)C2([C@H](Cc3ccccc3)Nc3ccccc3)C=CC1O2 (some centres undefined) | > 100 µM (inactive)
56 | C=CC[C@@H](Nc1ccc(C)cc1)C12C=CC(O1)C(C(=O)OC)=C2C(=O)OC (some centres undefined) | > 100 µM (inactive)
57 | C=CC[C@H](Nc1ccc(Cl)cc1)C12C=CC(O1)C(C(=O)OC)=C2C(=O)OC (some centres undefined) | > 100 µM (inactive)
58 | CCCC1=NN(c2ccc(C(=O)O)cc2)C(=O)/C1=C/c1ccc(O)cc1 | > 100 µM (inactive)
59 | C=CC[C@@H](N(Cc1ccccc1)/C(=C\C(=O)OC)C(=O)OC)C12C=CC(O1)C(C(=O)OC)=C2C(=O)OC (some centres undefined) | > 100 µM (inactive)
60 | COc1ccc2c(c1)C(NC(C)=O)C(=O)N2CCc1ccccc1 (centres undefined) | > 100 µM (inactive)
61 | COCCn1c(NC(=O)c2ccc(Cl)cc2)c(S(=O)(=O)c2ccc(C)cc2)c2nc3ccccc3nc21 | 1.74 µM
62 | CCCCn1c(NC(=O)c2ccco2)c(S(=O)(=O)c2ccc(C)cc2)c2nc3ccccc3nc21 | 0.809 µM
63 | CCCCn1c(NC(=O)c2ccccc2)c(S(=O)(=O)c2ccc(C)cc2)c2nc3ccccc3nc21 | 1.95 µM and 1.1 µM
64 | COC(=O)C1=C(C(=O)OC)C2([C@@H](Cc3ccc(OC)cc3)Nc3ccccc3)C=CC1O2 (some centres undefined) | > 100 µM (inactive)
65 | CCCC1=NN(c2ccc(C(=O)O)cc2)C(=O)/C1=C/c1ccc(OCc2ccccc2)cc1 | > 100 µM (inactive)
66 | CCCCn1c(NC(=O)c2ccccc2Cl)c(C#N)c2nc3ccccc3nc21 | 0.697 µM and 1.01 µM
67 | CCCCn1c(N)c(S(=O)(=O)c2ccc(C)cc2)c2nc3ccccc3nc21 | 2.08 µM and 0.875 µM
68 | C=CC[C@H](Nc1ccccc1)C12C=CC(O1)C(C(=O)OC)=C2C(=O)OC (some centres undefined) | > 100 µM (inactive)
69 | COC(=O)C1=C(C(=O)OC)C2([C@H](Cc3ccccc3)Nc3ccc(C)cc3)C=CC1O2 (some centres undefined) | > 100 µM (inactive)
70 | C=C[C@@H](Nc1ccccc1)C12C=CC(O1)C(C(=O)OC)=C2C(=O)OC (some centres undefined) | > 100 µM (inactive)
71 | C=CC[C@@H](Nc1ccc(Cl)cc1)C12C=CC(O1)C(C(=O)OC)=C2C(=O)OC (some centres undefined) | > 100 µM (inactive)
72 | CCCCn1c(NC(=O)c2ccccc2)c(C#N)c2nc3ccccc3nc21 | 1.2 µM and 1 µM
73 | COC(=O)C1=C(C(=O)OC)C2([C@@H](C)Nc3ccccc3)C=CC1O2 (some centres undefined) | > 100 µM (inactive)
74 | C=CCn1c(NS(=O)(=O)c2ccccc2)c(S(=O)(=O)c2ccc(C)cc2)c2nc3ccccc3nc21 | 0.769 µM
75 | Nc1c(C(=O)NCc2ccco2)c2nc3ccccc3nc2n1Cc1ccccc1 | 0.815 µM
76 | COc1ccc2c(c1)C(NC(C)=O)C(=O)N2CCOc1ccccc1 (centres undefined) | > 100 µM (inactive)
77 | CCCCn1c(NC(=O)c2ccc(Cl)cc2)c(C#N)c2nc3ccccc3nc21 | 0.859 µM
78 | COc1cc(/C=C2\C(=O)N(c3ccccc3)N=C2C)ccc1O | > 100 µM (inactive)
79 | COC(=O)C1=C(C(=O)OC)C2([C@@H](Cc3ccccc3)Nc3ccc(Cl)cc3)C=CC1O2 (some centres undefined) | > 100 µM (inactive)
